According to patent US12110286B2, “Benzimidazolone derived inhibitors of BCL6” (Cancer Research Technology Limited, priority 2017, dated 2024):

How the values were obtained:
SU-DHL-4 cells = assay: 14-day cell proliferation assay (CellTiter Glo); assay type: cell-based; details: Homo sapiens, SU-DHL-4, 336 h; SU-DHL4 cells, 14 days
Protocol: 14-Day Cell Proliferation Assay
SU-DHL-4 cells were seeded in 96-well culture plates at a density of 2000 cells/well in RPMI-1640 medium (Sigma-Aldrich) supplemented with 10% FBS (Gibco). Compounds were initially dispensed into 96-well U-bottom plates using an Echo 550 acoustic dispenser (Labcyte Inc.), then diluted in RPMI-1640 medium and transferred onto the cells. Cells were treated with 8 compound concentrations in duplicate, ranging from 1 nM to 10 μM, in a final DMSO concentration of 0.1% and final volume of 100 μl. Cells were incubated with compound for 14 days, with medium changes at days 3, 7 and 10 carried out as follows: fresh 96-well cell culture plates were prepared containing 100 μl medium plus compound at the assay concentrations (white plates were used on day 10 to optimise luminescence measurement). Assay plates containing cells were vortexed to mix and cell density in one control well was counted using a Coulter Z2 cell counter (Beckman Coulter). The volume of medium containing 2000 cells in the control well was calculated and this volume of cells was transferred from every well of the assay plates to the corresponding well of the fresh plates containing compound. After 14 days, CellTiter Glo reagent (Promega) was added to the medium in each well of the assay plate at a ratio of 1:2, mixed on a plate shaker, then incubated at room temperature for 10 minutes. Luminescence was measured using an Envision plate reader (Perkin Elmer) and the relative luminescence at each compound concentration, compared to DMSO alone, was calculated. G150 were determined using a 4-parameter curve fit in Dotmatics (Bishops Stortford, UK).

[1] = molecular target: Trx-6×His-BCL6 (human BCL6 BTB domain covering amino-acid sequence 5-129) (Homo sapiens (Human), UniProt P41182); assay: HTRF in vitro assay (BCL6 / BCOR-AF633 peptide); assay type: binding; details: further generated data, 1 nM Trx-6×His-BCL6, 300 nM BCOR-AF633 peptide, 0.5 nM anti-6×His-Terbium cryptate; for IC50: read-out: HTRF pIC50 (converted)
Protocol: The % inhibition at each concentration was calculated by normalising FRET ratio to the appropriate high (DMSO with all reagents) and low (DMSO without BCL6) controls.

endogenous BCL6 protein = endogenous BCL6 protein (Homo sapiens (Human), UniProt P41182); assay: Immunofluorescence-based BCL6 degradation assay; assay type: cell-based; details: 2 hours with compound
Protocol: Immunofluorescence-Based BCL6 Degradation Assay
DC50 values (compound concentration at which 50% of endogenous BCL6 protein is degraded) were determined in SUDHL-4 cells (American Type Culture Collection) in an immunofluorescence-based assay using an InCell2200 high content imaging system (GE Healthcare). […] After 20 hours cell culture at 37° C./CO2 incubator, compounds were dispensed in the cell culture plate using ECHO550 acoustic dispenser (Labcyte, Inc.), as 8 point-concentration response (ranging from 5 nM to 10 μM) in 0.67% final DMSO concentration. Cells were incubated with compound for 2 hours at 37° C./CO2 incubator followed by fixation in 4.5% formaldehyde (37% formaldehyde solution, Sigma catalogue F8775) at room temperature for 15 min. […] Blocking and cell permeabilisation were performed by incubating the fixed cells for 1 hour at room temperature in 1×TBS, 5% BSA, 1% Triton X100, followed by three washes on PW384 plate washer. Primary and secondary antibodies were prepared in 1×TBS, 1% BSA, 0.2% Triton X100. […] After incubation in each antibody, cells were washes four times in 1×TBS-0.05% tween on PW384 plate washer. Cells were finally incubated for 60 min with nuclear staining RedDot2 dye (Biotium) at 0.5× the stock concentration in 1×TBS. BCL6 expression in the absence or presence of compound was detected on InCell2200 with 20× objective and quantified on InCell Analyser 3.7.2 workstation (GE Healthcare). The % response at each concentration was calculated by normalising BCL6 expression in the presence of compound to the appropriate high (DMSO) and low (DMSO with 7 μM CCT369260) controls.

| IC50 [1] [nM] | SMILES | GI50 (SU-DHL-4 cells) [nM] | HTRF pIC50 [1] | Degradation assay in SU-DHL4 cells (pDC50) (endogenous BCL6 protein) |
| --- | --- | --- | --- | --- |
| – | C[C@@H]1CN(c2ncc(Cl)c(Nc3ccc4c(c3)n(CCC(C)(C)O)c(=O)n4C)n2)C[C@H](C)C1(F)F [Example 20a, 5-((5-chloro-2-((3R,5S)-4,4-difluoro-3,5-dimethylpiperidin-1-yl)pyrimidin-4-yl)amino)-3-(3-hydroxy-3-methylbutyl)-1-methyl-1,3-dihydro-2H-benzo[d]imidazol-2-one] | 70 | – | – |
| – | C[C@@H]1C[C@H](C)CN(c2ncc(Cl)c(Nc3ccc4c(c3)n(CCC(C)(C)O)c(=O)n4C)n2)C1 [Example 20e] | 350 | – | – |
| – | CC1CCCN(c2ncc(Cl)c(Nc3ccc4c(c3)n(CCC(C)(C)O)c(=O)n4C)n2)C1.O=CO (stereo not shown) [Example 20g] | 750 | 6.07 | 6.29 |
| – | Cn1c(=O)n(CCC(C)(C)O)c2cc(Nc3nc(N4CCCC(C(F)(F)F)C4)ncc3Cl)ccc21 (stereo not shown) [Example 20h] | – | 6.49 | 6.30 |
| – | Cn1c(=O)n(CCC(C)(C)O)c2cc(Nc3nc(N4CCC(F)(F)C(CO)C4)ncc3Cl)ccc21 (stereo not shown) [Example 35a, 5-((5-chloro-2-(4,4-difluoro-3-(hydroxymethyl)piperidin-1-yl)pyrimidin-4-yl)amino)-3-(3-hydroxy-3-methylbutyl)-1-methyl-1,3-dihydro-2H-benzo[d]imidazol-2-one] | 1140 | – | – |
| – | COCC1CN(c2ncc(Cl)c(Nc3ccc4c(c3)n(CCC(C)(C)O)c(=O)n4C)n2)CCC1(F)F (stereo not shown) [Example 35b, 5-((5-chloro-2-(4,4-difluoro-3-(methoxymethyl)piperidin-1-yl)pyrimidin-4-yl)amino)-3-(3-hydroxy-3-methylbutyl)-1-methyl-1,3-dihydro-2H-benzo[d]imidazol-2-one] | 1840 | 6.70 | 6.35 |
| – | CC1CN(c2ncc(Cl)c(Nc3ccc4c(c3)n(CCC(C)(C)O)c(=O)n4C)n2)CCC1(F)F (stereo not shown) [Example 35c, 5-((5-chloro-2-(4,4-difluoro-3-methylpiperidin-1-yl)pyrimidin-4-yl)amino)-3-(3-hydroxy-3-methylbutyl)-1-methyl-1,3-dihydro-2H-benzo[d]imidazol-2-one] | 440 | 6.53 | 6.75 |
| – | Cn1c(=O)n(CCC(C)(C)O)c2cc(Nc3nc(N4CCC(F)(F)CC4)ncc3Cl)ccc21 [Example 35d, 5-((5-chloro-2-(4,4-difluoropiperidin-1-yl)pyrimidin-4-yl)amino)-3-(3-hydroxy-3-methylbutyl)-1-methyl-1,3-dihydro-2H-benzo[d]imidazol-2-one] | 1130 | 6.48 | 6.59 |
| 1740 | C[C@@H]1CN(c2ncc(Cl)c(Nc3ccc4c(c3)n(CCC(C)(C)O)c(=O)n4CCC(C)(C)O)n2)C[C@H](C)C1(F)F [Example 35j, 5-((5-chloro-2-((3R,5S)-4,4-difluoro-3,5-dimethylpiperidin-1-yl)pyrimidin-4-yl)amino)-1,3-bis(3-hydroxy-3-methylbutyl)-1,3-dihydro-2H-benzo[d]imidazol-2-one] | 760 | – | 6.43 |
| 813 | Cn1c(=O)n(CCC(C)(C)O)c2cc(Nc3cc(N4CCC(F)(F)CC4)ncc3Cl)ccc21 [Example 36a, 5-((5-chloro-2-(4,4-difluoropiperidin-1-yl)pyridin-4-yl)amino)-3-(3-hydroxy-3-methylbutyl)-1-methyl-1,3-dihydro-2H-benzo[d]imidazol-2-one] | – | – | 6.35 |
